Values after ≈ are worked out from the molar mass of the structure shown.
Assays:
[1] = target: T1, pancreatic lipase type II (PL) from porcine pancreas (Sus scrofa, UniProt P00591); experiment: Kinetic study on PL (Ki, type of inhibition); type: biochemical; conditions: for Pancreatic Lipase Inhibition Type: Lineweaver–Burk, abbreviated UC, C, NC, M in Table S1; for Ki: nonlinear regression of enzyme inhibition kinetics
T1 construct: purchased Sigma-Aldrich L-SLBD2433V (printed); host or cells: porcine pancreas
T1 sequence (P00591 1-450): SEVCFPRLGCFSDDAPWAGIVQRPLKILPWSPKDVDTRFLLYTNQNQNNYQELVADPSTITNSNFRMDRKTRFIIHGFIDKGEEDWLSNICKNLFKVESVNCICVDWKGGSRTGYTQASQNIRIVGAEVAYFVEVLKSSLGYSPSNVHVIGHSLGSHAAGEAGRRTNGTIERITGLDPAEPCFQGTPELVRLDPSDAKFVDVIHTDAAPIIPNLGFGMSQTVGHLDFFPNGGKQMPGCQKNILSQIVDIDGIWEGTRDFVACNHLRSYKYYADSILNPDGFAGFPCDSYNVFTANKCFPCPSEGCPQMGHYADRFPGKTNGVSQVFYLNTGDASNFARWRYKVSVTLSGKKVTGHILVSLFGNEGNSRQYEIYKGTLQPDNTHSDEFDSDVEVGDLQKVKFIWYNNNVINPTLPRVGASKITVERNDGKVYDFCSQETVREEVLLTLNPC
From the text: (§1) The enzymes used in this study were pancreatic lipase type II (PL) from porcine pancreas (100–400 units/mg protein, L-SLBD2433V, EC. 3.1.1.3, Sigma-Aldrich, San Luis, MO, USA) and α-glucosidase (AG) type I from Saccharomyces cerevisiae (lyophilized powder, ≥10 units/mg protein, L-SLBX6245, EC 3.2.1.20, Sigma-Aldrich, San Luis, MO, USA). 4-nitrophenyl dodecanoate (Sigma-Aldrich, San Luis, MO, USA) was used as the substrate for PL while 4-nitrophenyl-α-D-glucopyranoside (Sigma-Aldrich, San Luis, MO, USA) for AG. Absorbance readings were performed in a Multiskan GO microplate reader (Thermo Scientific®, Waltham, MA, USA).
(§2) Kinetic studies to determine the type of inhibition were performed with PL and AG using a methodology the same as that described in the inhibitory activity assays. […] Five substrate concentrations were used for each of the enzymes in the range between 12.5 to 200 μM p-nitrophenyl dodecanoate for PL and 25 to 800 μM for p-nitrophenyl-α-D-glucopyranoside in AG. Kinetic experiments were performed in triplicate in two independent experiments. Inhibition constants (Ki) were calculated from (substrate) vs reaction rate curves using nonlinear regression of the enzyme inhibition kinetic function. Additionally, the inhibition mechanism was graphically determined by applying the double reciprocal Lineweaver–Burk regression function.

[2] = target: T1, pancreatic lipase type II (PL) from porcine pancreas; experiment: PL inhibition assay; type: biochemical; conditions: p-nitrophenyl dodecanoate substrate, pH 8.4, 37 °C; NA: not active
From the text: as §1
Determination of enzymatic inhibition of the identified compounds against the PL enzyme was carried out following the methodology described in the literature with some modifications. The concentrations were evaluated for compounds from 300 to 6.25 µM. […] In 96-well boxes, 30 μL of extract or compound stock solution, 30 μL of PL solution (200 U/mL), and 160 μL of Tris-HCl buffer (0.1 M, pH: 8.4) were mixed. The mixture obtained was pre-incubated for 30 min at 37 °C. Subsequently, 30 μL of p-nitrophenyl dodecanoate (100 μM) were added to complete a final volume of 250 μL and incubated for 40 min at 37 °C. After the incubation time, the absorbance was measured at 405 nm. All assays were performed in triplicate in two independent assays. IC50 values were estimated by nonlinear regression analysis. Statistically significant differences in biological effects of inhibitors (compounds) were analyzed and compared using the ANOVA test, supplemented by Tukey HSD post hoc analysis. All reported data corresponded to the average of three repetitions ± SD, and the statistical significance considered was p < 0.05.

[3] = target: T2, α-glucosidase (AG) type I from Saccharomyces cerevisiae (Saccharomyces cerevisiae, UniProt P53341); experiment: biochemical; conditions: α-Glucosidase IC50, p-nitrophenyl-α-D-glucopyranoside substrate, pH 7.2, 37 °C; NA: not active
T2 construct: purchased Sigma-Aldrich L-SLBX6245 (printed); host or cells: Saccharomyces cerevisiae
From the text: as §1
Determination of enzyme inhibition of the compounds identified against the AG enzyme was carried out following the methodology described in the literature with some modifications. The concentrations were evaluated for compounds from 300 to 6.25 µM. […] In 96-well boxes, 10 μL of stock solution of each extract or compound, 20 μL of GA solution (0.5 U/mL), and 200 μL of phosphate buffer (0.1 M, pH: 7.2) were mixed. The mixture obtained was pre-incubated for 30 min at 37 °C. […] After the reaction time, the absorbance at 405 nm was measured. […] Statistically significant differences in the biological effects of inhibitors (compounds) were analyzed and compared using ANOVA, supplemented by Tukey HSD post hoc analysis. […]

[4] = target: T2, α-glucosidase (AG) type I from Saccharomyces cerevisiae; experiment: Kinetic study on AG (Ki, type of inhibition); type: biochemical; conditions: for α-Glucosidase Inhibition Type: Lineweaver–Burk, abbreviated M, NC in Table S1; for Ki: nonlinear regression of enzyme inhibition kinetics
From the text: as §1, §2

AG = conditions: cited from earlier work
chemokine receptor CCR5 = system: chemokine receptor CCR5; design: method as in PMID 14561515; conditions: cited from earlier work

T2 sequence (P53341 whole entry): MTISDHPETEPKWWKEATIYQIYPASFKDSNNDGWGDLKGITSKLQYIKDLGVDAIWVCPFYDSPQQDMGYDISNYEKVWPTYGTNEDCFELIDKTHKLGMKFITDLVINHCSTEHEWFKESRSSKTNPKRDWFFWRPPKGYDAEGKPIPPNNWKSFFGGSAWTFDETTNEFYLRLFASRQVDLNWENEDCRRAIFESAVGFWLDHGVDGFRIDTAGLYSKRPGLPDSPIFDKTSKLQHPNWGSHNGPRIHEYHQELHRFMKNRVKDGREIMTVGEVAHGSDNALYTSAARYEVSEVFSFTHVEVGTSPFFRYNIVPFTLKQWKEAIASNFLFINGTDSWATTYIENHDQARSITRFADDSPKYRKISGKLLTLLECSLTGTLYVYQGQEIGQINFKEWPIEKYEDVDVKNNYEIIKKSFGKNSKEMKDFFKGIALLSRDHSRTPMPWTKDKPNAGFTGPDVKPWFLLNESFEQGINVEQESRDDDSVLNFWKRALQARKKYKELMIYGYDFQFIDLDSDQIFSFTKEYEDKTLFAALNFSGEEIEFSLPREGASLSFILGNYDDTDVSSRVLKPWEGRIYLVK

Row | Structure (SMILES) | Pancreatic Lipase Inhibition Type [1] | Ki [1] [µM] | IC50 [2] [µM] | also measured
1 | CCCCCCCCCCC[C@@H](C[C@@H]1OC(=O)[C@H]1CCCCCC)OC(=O)[C@H](CC(C)C)NC=O [Orlistat, reference compound] | Irreversible |  |  | 
2 | CC(C)=CCC/C(C)=C\C(=O)c1cc(C(=O)O)cc(CC=C(C)C)c1O [Compound 2, (2′Z) cumenic acid] |  | 8.46 | 36.2 ± 5.05 | melting point: 132 to 134 °C
3 | CC(C)=CCCC(C)=CC(O)c1ccc2c(c1)C=CC(C)(C)O2 (stereo not drawn) [Compound 7, 1-(2,2-Dimethyl-2H-chromen-6-yl)-3,7-dimethyl-octa-2,6-dien-1-ol] | Competitive | 25.4 | 33.1 ± 5.28 | IC50 [3]: 134 ± 5.6 µM; α-Glucosidase Inhibition Type [4]: Noncompetitive; Ki [4]: 136 µM
4 | CC(C)=CC(=O)c1ccccc1O [Compound 5, 1-(2-Hydroxy-phenyl)-3-methyl-but-2-en-1-one] | Noncompetitive | 48.3 | 48.3 ± 2.57 | 
5 | CO[C@H]1C=CC(=O)N1C(=O)CCc1ccccc1 [chaplupyrrolidone B] |  |  |  | IC50 (AG): 430 µM
6 | C[C@H]1O[C@H](O[C@H]2[C@H](O)[C@@H](O)[C@@H](O[C@H]3[C@H](O)[C@@H](O)C(O)O[C@@H]3CO)O[C@@H]2CO)[C@H](O)[C@@H](O)[C@@H]1N[C@H]1C=C(CO)[C@@H](O)[C@H](O)[C@H]1O (stereo partly drawn) [Acarbose, reference compound] |  |  |  | α-Glucosidase Inhibition Type [4]: Competitive
7 | COc1ccc(C(=O)O)cc1CC=C(C)C [Compound 4, 4-methoxy-3-(3′-methyl-2’-butenyl)benzoic acid] |  |  |  | ability to bind to the chemokine receptor CCR5 (chemokine receptor CCR5): confirmed; Pancreatic Lipase IC50 [2]: did not show any activity; melting point: 112 to 113 °C
8 | O=C(/C=C/C=C/c1ccc2c(c1)OCO2)N1CCCCC1 [piperine] |  |  |  | IC50 on AG (AG): 147 µg/mL (≈ 515 µM)
9 | CC(C)=CCCC1(C)C=Cc2cc(C(=O)O)cc(CC=C(C)C)c2O1 (stereo not drawn) [Compound 3, gaudichaudianic acid] | Competitive | 18 | 36.3 ± 6.5 | 
10 | COC(=O)c1cc(CC=C(C)C)c(O)c(C(=O)C=C(C)CCC=C(C)C)c1 [Compound 8, 3-(3,7-Dimethyl-octa-2,6-dienoyl)-4-hydroxy-5-(3-methyl-but-2-enyl)-benzoic acid methyl ester] | Mixed | 42.8 | 55.8 ± 2.98 | 
11 | CC(C)=CCC/C(C)=C/C(=O)c1cc(C(=O)O)cc(CC=C(C)C)c1O [Compound 1, (2′E) cumenic acid] |  | 7.88 | 33.8 ± 5.95 | 
12 | CCCCC1(O)CC(C)(C)Oc2ccccc21 (stereo not drawn) [Compound 6, 4-Butyl-2,2-dimethyl-chroman-4-ol] | Noncompetitive | 28.3 | 28.3 ± 2.9 | IC50 [3]: 154 ± 4.65 µM; α-Glucosidase Inhibition Type [4]: mixed-type; Ki [4]: 51.3 µM
